Test results: ChEMBL document CHEMBL5038612, “Discovery of a 2,4-diphenyl-5,6-dihydrobenzo(h)quinolin-8-amine derivative as a novel DNA intercalating topoisomerase IIα poison” (Eur J Med Chem, 2021)
Where a name gives a salt, the structure may show the parent alone. Active and inactive are the calls of the source. No cut-off for these calls is given here.

Columns and labels:
[1] = tested on: HeLa; assay: Antiproliferative activity against human HeLa cells assessed as reduction in cell viability after 48 hrs by Ez-cytoX based microplate reader method; type: functional
[2] = tested on: HCT-15; assay: Antiproliferative activity against human HCT-15 cells assessed as reduction in cell viability after 48 hrs by Ez-cytoX based microplate reader method; type: functional; settings: HCT-15, 48 h
[3] = target: T1, DNA topoisomerase 2-alpha (Homo sapiens, UniProt P11388); assay: Inhibition of human topoisomerase 2 alpha mediated supercoiled pBR322 DNA relaxation at 100 uM by ethidium bromide staining based agarose gel electrophoresis relative to control
[4] = target: T1, DNA topoisomerase 2-alpha; assay: Inhibition of human topoisomerase 2 alpha mediated supercoiled pBR322 DNA relaxation at 2 uM by ethidium bromide staining based agarose gel electrophoresis relative to control
[5] = target: T1, DNA topoisomerase 2-alpha; assay: Inhibition of human topoisomerase 2 alpha mediated supercoiled pBR322 DNA relaxation by ethidium bromide staining based agarose gel electrophoresis
[6] = target: DNA topoisomerase 2-beta (Homo sapiens) (UniProt Q02880); assay: Inhibition of human topoisomerase 2 beta mediated supercoiled pBR322 DNA relaxation at 5 uM by ethidium bromide staining based agarose gel electrophoresis relative to control
[7] = tested on: BT-474; assay: Antiproliferative activity against human BT-474 cells assessed as reduction in cell viability after 48 hrs by Ez-cytoX based microplate reader method; type: functional; settings: BT-474, 48 h
[8] = tested on: DU-145; assay: Antiproliferative activity against human DU-145 cells assessed as reduction in cell viability after 48 hrs by Ez-cytoX based microplate reader method; type: functional; settings: DU-145, 48 h
[9] = tested on: LNCaP; assay: Antiproliferative activity against human LNCaP-LN3 cells assessed as reduction in cell viability after 48 hrs by Ez-cytoX based microplate reader method; type: functional
[10] = target: T1, DNA topoisomerase 2-alpha; assay: Inhibition of human topoisomerase 2 alpha mediated supercoiled pBR322 DNA relaxation at 1 uM by ethidium bromide staining based agarose gel electrophoresis relative to control
[11] = target: DNA topoisomerase 2-beta (Homo sapiens) (UniProt Q02880); assay: Inhibition of human topoisomerase 2 beta mediated supercoiled pBR322 DNA relaxation at 100 uM by ethidium bromide staining based agarose gel electrophoresis relative to control
[12] = target: T1, DNA topoisomerase 2-alpha; assay: Inhibition of human topoisomerase 2 alpha mediated supercoiled pBR322 DNA relaxation at 10 uM by ethidium bromide staining based agarose gel electrophoresis relative to control
[13] = target: T1, DNA topoisomerase 2-alpha; assay: Inhibition of human topoisomerase 2 alpha mediated supercoiled pBR322 DNA relaxation at 5 uM by ethidium bromide staining based agarose gel electrophoresis relative to control
[14] = tested on: LNCaP-Clone-FGC; assay: Antiproliferative activity against human LNCaP-Clone-FGC cells assessed as reduction in cell viability after 48 hrs by Ez-cytoX based microplate reader method; type: functional
[15] = tested on: SK-OV-3; assay: Antiproliferative activity against human SK-OV-3 cells assessed as reduction in cell viability after 48 hrs by Ez-cytoX based microplate reader method; type: functional; settings: SK-OV-3, 48 h
[16] = tested on: Calf thymus DNA; assay: Binding affinity to calf thymus DNA assessed as DNA intercalation at 10 to 100 uM by fluorescence based EtBr-displacement assay; type: nucleic-acid assay; settings: Bos taurus; dose 10-100 µM
[17] = target: DNA topoisomerase 2-beta (Homo sapiens) (UniProt Q02880); assay: Inhibition of human topoisomerase 2 beta mediated supercoiled pBR322 DNA relaxation at 2 uM by ethidium bromide staining based agarose gel electrophoresis relative to control
[18] = tested on: Calf thymus DNA; assay: Binding affinity to calf thymus DNA assessed as DNA intercalation at 100 uM by fluorescence based EtBr-displacement assay relative to control; type: nucleic-acid assay; settings: Bos taurus

Chain of DNA topoisomerase 2-beta (Homo sapiens) (Q02880 whole entry): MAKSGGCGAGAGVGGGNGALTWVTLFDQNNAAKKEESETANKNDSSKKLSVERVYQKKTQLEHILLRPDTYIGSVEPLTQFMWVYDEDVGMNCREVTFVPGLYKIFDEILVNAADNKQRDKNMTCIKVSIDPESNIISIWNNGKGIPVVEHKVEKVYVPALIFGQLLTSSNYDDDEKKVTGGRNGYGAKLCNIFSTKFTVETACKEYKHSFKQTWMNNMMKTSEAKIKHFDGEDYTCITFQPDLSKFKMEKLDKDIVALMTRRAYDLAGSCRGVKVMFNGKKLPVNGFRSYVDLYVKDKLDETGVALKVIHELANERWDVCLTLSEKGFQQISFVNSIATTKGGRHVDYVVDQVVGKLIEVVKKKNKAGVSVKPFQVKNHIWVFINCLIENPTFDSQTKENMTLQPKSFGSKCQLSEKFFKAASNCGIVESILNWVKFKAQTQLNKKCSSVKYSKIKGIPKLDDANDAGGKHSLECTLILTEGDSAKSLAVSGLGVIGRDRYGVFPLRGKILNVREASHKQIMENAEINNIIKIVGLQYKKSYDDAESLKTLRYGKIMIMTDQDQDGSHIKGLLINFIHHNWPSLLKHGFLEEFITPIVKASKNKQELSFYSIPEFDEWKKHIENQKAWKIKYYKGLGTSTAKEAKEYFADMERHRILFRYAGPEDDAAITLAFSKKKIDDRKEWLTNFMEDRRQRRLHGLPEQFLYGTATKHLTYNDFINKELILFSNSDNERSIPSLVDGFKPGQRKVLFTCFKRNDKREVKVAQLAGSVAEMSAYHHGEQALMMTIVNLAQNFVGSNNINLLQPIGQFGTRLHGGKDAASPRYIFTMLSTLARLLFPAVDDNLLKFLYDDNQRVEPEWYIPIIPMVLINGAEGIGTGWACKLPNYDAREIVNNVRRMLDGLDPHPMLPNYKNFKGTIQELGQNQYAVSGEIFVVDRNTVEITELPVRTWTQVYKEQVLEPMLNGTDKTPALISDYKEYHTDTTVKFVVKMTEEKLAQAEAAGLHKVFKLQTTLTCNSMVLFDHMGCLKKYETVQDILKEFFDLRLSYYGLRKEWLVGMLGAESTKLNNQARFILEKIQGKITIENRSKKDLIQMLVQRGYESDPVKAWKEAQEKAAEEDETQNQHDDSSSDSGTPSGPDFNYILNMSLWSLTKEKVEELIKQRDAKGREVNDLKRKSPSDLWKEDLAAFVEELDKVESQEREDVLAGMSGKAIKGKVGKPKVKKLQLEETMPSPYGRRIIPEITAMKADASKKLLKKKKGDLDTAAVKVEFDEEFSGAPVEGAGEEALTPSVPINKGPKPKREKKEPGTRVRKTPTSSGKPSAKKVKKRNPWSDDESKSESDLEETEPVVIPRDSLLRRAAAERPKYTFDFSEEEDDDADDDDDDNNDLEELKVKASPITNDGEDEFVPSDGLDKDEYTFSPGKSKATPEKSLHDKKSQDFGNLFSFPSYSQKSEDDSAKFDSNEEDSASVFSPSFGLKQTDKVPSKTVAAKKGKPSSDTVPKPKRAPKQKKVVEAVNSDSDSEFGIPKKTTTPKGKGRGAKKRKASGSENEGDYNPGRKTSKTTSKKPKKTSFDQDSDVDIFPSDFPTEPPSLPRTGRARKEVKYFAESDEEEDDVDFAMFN
T1 sequence (P11388 whole entry): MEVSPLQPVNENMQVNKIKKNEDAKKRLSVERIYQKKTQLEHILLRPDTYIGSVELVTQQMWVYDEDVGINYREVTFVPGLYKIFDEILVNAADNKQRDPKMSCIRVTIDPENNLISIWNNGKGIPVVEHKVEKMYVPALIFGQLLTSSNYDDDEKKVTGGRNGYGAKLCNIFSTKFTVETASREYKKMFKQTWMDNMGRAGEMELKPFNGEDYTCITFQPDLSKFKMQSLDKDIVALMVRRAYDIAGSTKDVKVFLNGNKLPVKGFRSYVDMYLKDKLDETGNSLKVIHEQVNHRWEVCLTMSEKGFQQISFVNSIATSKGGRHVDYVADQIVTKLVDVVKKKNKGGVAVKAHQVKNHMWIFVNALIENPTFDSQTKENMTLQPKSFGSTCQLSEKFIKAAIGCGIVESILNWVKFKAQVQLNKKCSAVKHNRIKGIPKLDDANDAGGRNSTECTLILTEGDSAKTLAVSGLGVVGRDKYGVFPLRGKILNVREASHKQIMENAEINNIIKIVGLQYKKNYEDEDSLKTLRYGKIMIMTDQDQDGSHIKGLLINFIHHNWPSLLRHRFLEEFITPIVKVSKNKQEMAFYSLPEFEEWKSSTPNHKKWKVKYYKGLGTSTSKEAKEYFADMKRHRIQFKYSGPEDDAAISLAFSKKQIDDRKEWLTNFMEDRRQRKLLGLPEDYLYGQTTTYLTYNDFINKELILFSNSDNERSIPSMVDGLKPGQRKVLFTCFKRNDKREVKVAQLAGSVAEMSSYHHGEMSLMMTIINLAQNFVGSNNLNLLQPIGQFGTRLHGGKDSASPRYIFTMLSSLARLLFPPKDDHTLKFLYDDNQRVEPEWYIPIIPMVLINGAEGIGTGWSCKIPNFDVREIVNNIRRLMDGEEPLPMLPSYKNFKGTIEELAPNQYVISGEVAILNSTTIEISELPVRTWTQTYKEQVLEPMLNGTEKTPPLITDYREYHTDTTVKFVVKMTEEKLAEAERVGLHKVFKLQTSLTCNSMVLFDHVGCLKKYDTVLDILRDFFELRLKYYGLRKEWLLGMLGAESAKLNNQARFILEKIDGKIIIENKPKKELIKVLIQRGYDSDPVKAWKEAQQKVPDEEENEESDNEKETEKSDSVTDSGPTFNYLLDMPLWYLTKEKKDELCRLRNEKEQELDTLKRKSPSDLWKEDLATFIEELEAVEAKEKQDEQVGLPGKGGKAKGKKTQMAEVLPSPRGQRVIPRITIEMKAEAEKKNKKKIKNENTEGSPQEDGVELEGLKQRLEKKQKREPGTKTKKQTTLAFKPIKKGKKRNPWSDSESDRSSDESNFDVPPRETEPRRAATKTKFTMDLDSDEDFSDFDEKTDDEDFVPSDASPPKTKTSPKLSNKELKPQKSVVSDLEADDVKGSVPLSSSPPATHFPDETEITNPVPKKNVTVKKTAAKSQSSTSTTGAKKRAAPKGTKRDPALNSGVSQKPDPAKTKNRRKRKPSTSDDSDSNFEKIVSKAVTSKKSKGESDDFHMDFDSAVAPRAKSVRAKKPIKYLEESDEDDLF

Structure (SMILES)	IC50 [1] [µM]	IC50 [2] [µM]	inhibition [3] [%]	other results
Nc1ccc2c(c1)CCc1c(-c3ccc(OC(F)(F)F)cc3)cc(-c3ccc(O)cc3)nc1-2	5.86	2.02	36.5	–
Nc1ccc2c(c1)CCc1c(-c3cccc(C(F)(F)F)c3)cc(-c3cccc(O)c3)nc1-2	4.49	2.43	62.9	–
Nc1ccc2c(c1)CCc1c(-c3ccccc3OC(F)(F)F)cc(-c3ccc(O)cc3)nc1-2	2.87	2.96	72.5	–
Nc1ccc2c(c1)CCc1c(-c3cccc(OC(F)(F)F)c3)cc(-c3ccc(O)cc3)nc1-2	3.78	1.79	36.5	–
Nc1ccc2c(c1)CCc1c(-c3ccc(F)cc3)cc(-c3cccc(O)c3)nc1-2	5.18	2.87	3.9	–
Nc1ccc2c(c1)CCc1c(-c3ccc(C(F)(F)F)cc3)cc(-c3ccccc3O)nc1-2	> 50	> 50	28.8	–
Nc1ccc2c(c1)CCc1c(-c3cccc(C(F)(F)F)c3)cc(-c3ccccc3O)nc1-2	7.61	2.29	25.7	–
Nc1ccc2c(c1)CCc1c(-c3ccccc3C(F)(F)F)cc(-c3ccccc3O)nc1-2	6.58	1.23	29.3	–
Nc1ccc2c(c1)CCc1c(-c3ccc(F)cc3)cc(-c3ccc(O)cc3)nc1-2	5.64	2.96	77.6	–
Nc1ccc2c(c1)CCc1c(-c3ccccc3F)cc(-c3ccc(O)cc3)nc1-2	3.26	1.52	25.3	–
Nc1ccc2c(c1)CCc1c(-c3ccccc3F)cc(-c3cccc(O)c3)nc1-2	5.38	1.92	4.3	–
Nc1ccc2c(c1)CCc1c(-c3ccc(F)cc3)cc(-c3ccccc3O)nc1-2	> 50	> 50	1.2	–
Nc1ccc2c(c1)CCc1c(-c3ccc(OC(F)(F)F)cc3)cc(-c3ccccc3O)nc1-2	> 50	> 50	30.2	–
Nc1ccc2c(c1)CCc1c(-c3ccc(C(F)(F)F)cc3)cc(-c3ccc(O)cc3)nc1-2	5.54	2.73	77.8	–
Nc1ccc2c(c1)CCc1c(-c3cccc(OC(F)(F)F)c3)cc(-c3cccc(O)c3)nc1-2	4.62	1.84	60	–
Nc1ccc2c(c1)CCc1c(-c3ccc(C(F)(F)F)cc3)cc(-c3cccc(O)c3)nc1-2	4.98	2.34	72.4	–

Structure (SMILES)	IC50 [1] [µM]	IC50 [2] [µM]	inhibition [3] [%]	other results
Nc1ccc2c(c1)CCc1c(-c3ccccc3)cc(-c3ccccc3O)nc1-2	33.2	3.47	0	–
Nc1ccc2c(c1)CCc1c(-c3ccc(OC(F)(F)F)cc3)cc(-c3cccc(O)c3)nc1-2	5.59	2.71	49	–
COc1cc([C@@H]2c3cc4c(cc3[C@@H](O[C@@H]3O[C@@H]5CO[C@@H](C)O[C@H]5[C@H](O)[C@H]3O)[C@H]3COC(=O)[C@H]23)OCO4)cc(OC)c1O [ETOPOSIDE]	8.3	–	–	–
Nc1ccc2c(c1)CCc1c(-c3cccc(C(F)(F)F)c3)cc(-c3ccc(O)cc3)nc1-2	5.14	2	75	–
Nc1ccc2c(c1)CCc1c(-c3cccc(F)c3)cc(-c3ccc(O)cc3)nc1-2	5.05	1.85	10.5	–
Nc1ccc2c(c1)CCc1c(-c3ccccc3OC(F)(F)F)cc(-c3cccc(O)c3)nc1-2	3.41	5.58	62.8	–
Nc1ccc2c(c1)CCc1c(-c3cccc(F)c3)cc(-c3cccc(O)c3)nc1-2	4.19	3.91	3.4	–
Nc1ccc2c(c1)CCc1c(-c3ccccc3F)cc(-c3ccccc3O)nc1-2	22.8	1.11	1.2	–
Nc1ccc2c(c1)CCc1c(-c3ccccc3C(F)(F)F)cc(-c3ccc(O)cc3)nc1-2	5.07	1.99	81.9	inhibition [4]: 34.4%; IC50 [5]: 3.58 µM; inhibition [6]: 21.7%; IC50 [7]: 5.13 µM; IC50 [8]: 1.56 µM; IC50 [9]: 5.58 µM; inhibition [10]: 22.3%; inhibition [11]: 82.6%; inhibition [12]: 66.2%; inhibition [13]: 57%; IC50 [14]: 7.18 µM; IC50 [15]: 1.67 µM; Activity [16]: Dose-Dependent Effect; inhibition [17]: 19.6%; Activity [18]: inactive
Nc1ccc2c(c1)CCc1c(-c3cccc(F)c3)cc(-c3ccccc3O)nc1-2	8.16	2.26	1.3	–
Nc1ccc2c(c1)CCc1c(-c3ccccc3)cc(-c3cccc(O)c3)nc1-2	4.05	3.3	1.5	–
Nc1ccc2c(c1)CCc1c(-c3ccccc3)cc(-c3ccc(O)cc3)nc1-2	6.55	3.82	21.7	–
Nc1ccc2c(c1)CCc1c(-c3ccccc3C(F)(F)F)cc(-c3cccc(O)c3)nc1-2	5.4	2.93	87.4	–
Nc1ccc2c(c1)CCc1c(-c3ccccc3OC(F)(F)F)cc(-c3ccccc3O)nc1-2	5.46	2.86	70	–
COc1cccc2c1C(=O)c1c(O)c3c(c(O)c1C2=O)C[C@@](O)(C(=O)CO)C[C@@H]3O[C@H]1C[C@H](N)[C@H](O)[C@H](C)O1 [DOXORUBICIN HYDROCHLORIDE]	–	1.89	–	–
